Results taken from patent US20060035927A1, “Calcilytic compounds” (SmithKline Beecham Corporation, priority 1999, published 2006).

What was measured:
[1] = tested on: osteopenic ovx rats; experiment: Ovariectomized rat Study 1: bone mineral density by DXA; format: in vivo; details: Study 1, ovx rats, 5 ug/kg daily PTH s.c., eight weeks
Excerpt: (§1) Seven month old virgin Sprague Dawley female rats were subjected to bilateral ovariectomy or sham surgery and the animals then held for a period of three months to allow the development of osteopenia. At that time a single sham group (n=10) and three groups of ovariectomized (ovx) animals (n=10-14) were assigned. The ovx groups were selected such that there was no significant difference in bone mineral density (“BMD”) of the lumbar spine, proximal tibia or distal femur between groups. Groups consisted of sham and ovx controls treated with dose vehicle (20% aqueous encapsin) and ovx groups treated with either N-[(2R-Hydroxy-3-[(3-chloro-2-cyano)phenoxy-propyl]-1,1-dimethyl-2-(2-naphthyl)ethyl amine hydrochloride (“calcilytic administered”) ([…] body weight daily p.o.) or rat PTH 1-34 (5 ug/kg body weight daily s.c.).
(§2) During the study blood samples were drawn for determination of circulating PTH and osteocalcin. BMD was determined by DXA (QDR4500 Hologic, Waltham, Mass.) prior to treatment and at weeks 4 and 8. At term tibiae were removed for histological analysis. All animals received tetracycline 10 and 3 days prior to the start of dosing and calcein (10 mg/kg) 10 and 3 days prior to sacrifice.

[2] = tested on: plasma PTH; experiment: Ovariectomized rat Study 1: circulating PTH levels (RIA); format: in vivo; details: Study 1, 5 ug/kg PTH s.c.
Excerpt: as §1, §2
Timed plasma samples were collected relative to administration of compound or PTH. PTH 1-34 was measured by RIA (Nichols Institute Diagnostics, San Juan Capistrano, Calif.). The concentrations of compound in the plasma were quantified by LC/MS/MS (limit of detection 10 ng/ml).

[3] = tested on: osteopenic ovx rats; experiment: Ovariectomized rat Study 1: dynamic histomorphometry of proximal tibia; format: in vivo
Excerpt: as §1, §2
(§3) Bone samples were dehydrated through increasing concentrations of ethanol, defatted in acetone and embedded in methyl methacrylate (Polysciences, Inc., Warrington, Pa.). Longitudinal undecalcified sections (5 μm) sections of the proximal tibial were cut on a Leica microtome (SM2500S); the tissue blocks had been prestained with Villanueva stain. Histomorphometric analysis was carried out using an Osteomeasure system (OsteoMetrics Incorpotated), without knowledge of group allocation. Measurements within the tibial metaphysis were restricted to a mean tissue area of approximately 8 mm^2 beginning 1 mm below the growth plate. Primary measurements included area of bone and marrow (mm^2), bone area (mm^2), perimeter of bone (mm), single and double-labelled perimeter (sL.Pm, dL.Pm, m), osteoid perimeter (O.Pm, m) and eroded perimeter (Er.P, m). Derived indices included trabecular bone volume (% Tb.Ar), trabecular number (Th.N, mm^−1), trabecular thickness (Th.Th, μm), trabecular separation (Th.Sp, μm), bone formation rate, surface referent (BFR/Tb.Pm, μm^3/μm^2/year), BFR/Tb.Ar (bone area referent, %/year), BFR/B.Ar (tissue referent, %/year) and mineral apposition rate (MAR, μm/day), and percent labelled perimeter (% Lp). Statistical analysis was assessed by a two sided t-test.

[4] = tested on: human TF274 osteoblastic cells; experiment: Osteoblast cAMP production, TF274 cells; format: cell-based; details: compound 0.1, 1 and 10 uM, PTH 40 ng/ml positive control
Procedure: (§4) cAMP accumulation was measured in both human TF274 osteoblastic cells (derived by immortalization of human bone marrow stromal cells) see James, supra, and primary human osteoblasts derived from explants of trabecular bone as described in Beresford, Biochim. Biophys. Acta, Vol. 801, pp. 58-65 ([…]). cAMP levels in cell samples were measured using a non-radioactive protocol (Amersham kit). Alkaline phosphatase activity was determined using the standard colorimetric method as described previously in Gowen, Arth. Rheum., Vol. 31, pp. 1500-1507 (1988). N-[(2R-Hydroxy-3-[(3-chloro-2-cyano)phenoxy-propyl]-1,1-dimethyl-2-(2-naphthyl)ethyl amine hydrochloride was tested at 0.1, 1 and 10 uM. PTH 40 ng/ml was used as a positive control.

[5] = tested on: primary human osteoblasts; experiment: Osteoblast cAMP production, primary human osteoblasts; format: cell-based; details: compound 0.1, 1 and 10 uM, PTH 40 ng/ml positive control
Procedure: as §4

[6] = rats, PTH dose of 80 ug/kg, published studies; cited from earlier work
[7] = cited from earlier work
[8] = s.c. infusion 40 and 80 ug/kg/day over periods of 2 hours or more; cited from earlier work
[9] = tested on: osteopenic ovx rats; experiment: Ovariectomized rat Study 2: calcilytic plus/minus 17β estradiol, histology and histomorphometry of proximal tibia; format: in vivo; details: Study 2, proximal tibia, static histomorphometry, vs ovx group
Procedure: as §3, with “Animals were prepared and monitored as described above. […] Dosing continued for 5 weeks at which point the animals were sacrificed and the tibiae were collected for histological analysis. Bone” for “Bone”, “(S[…]);” for “(SM2500S);”, “Derived indices included trabecular bone volume (% Tb.Ar), trabecular number (Th.N, mm^−1), trabecular thickness (Th.Th, μm), trabecular separation (Th.Sp, μm), bone formation rate, surface referent (BFR/Tb.Pm, μm^3/μm^2/year), BFR/Tb.Ar (bone area referent, %/year), BFR/B.Ar (tissue referent, %/year) and mineral apposition rate (MAR, μm/day), and percent labelled perimeter (% Lp).” left out

[10] = tested on: human osteoclasts; experiment: Human osteoclast-mediated bone resorption assay; format: cell-based; details: 24 hours, bovine cortical bone particles
Procedure: The isolation of disaggregated human osteoclasts from fresh osteoclastoma tissue and the in vitro human osteoclast resorption assay were performed according to James, J. Bone Min. Res., Vol. 11, pp. 1453-1460. Briefly, human osteoclasts were seeded onto bovine cortical bone particles with compound or vehicle for 24 hours at 37° C. The culture media were then removed and the levels of the carboxy-terminal peptide of the α1 chain of human type I collagen were quantified as a biochemical readout of resorption, using a competitive binding enzyme linked immunosorbant assay (ELISA) (19) (Osteometer A/S, Rodovre, Denmark). The results are expressed as percent inhibition of resorption compared to supernatants derived from osteoclasts cultured in vehicle without inhibitor. IC50 values are determined from the resultant dose response curves.

[11] = Study 1, proximal tibia, vs ovx control, calcilytic 100 mmol/kg p.o. or PTH 5 ug/kg s.c. daily
[12] = clinical, 0.4 ug/kg, 30 minutes after dosing

In the case of “PTH: parathyroid hormone; rat PTH 1-34 s.c. in the rat studies, PTH 40 ng/ml as positive control in osteoblast assays [reference compound]”, the “bone mass (BMD) in the proximal tibia” value [1] is reported as “returned to pre-ovx levels”, the “time of return of PTH levels to baseline after dosing” value [2] is reported as 2 to 4 h and the “PTH levels in animals given PTH” value ([2]; compared with calcilytic-dosed animals) is reported as “in the same range”. The “bone formation and resorption, net bone gain or loss” value ([3]; Study 1, overall outcome) was “increased both resorption and formation, but formation exceeded resorption, resulting in increased bone mass”, the “bone formation: % labeled perimeter (% L.Pm.)” value [3, 11] was “elevated above the ovx control level” and the “bone formation: % osteoid perimeter (% Os.Pm)” value [3, 11] was “elevated above the ovx control level”. For the same compound, the “cAMP levels (basal)” value [4] was “two-fold increase”, the “cAMP levels (basal)” value [5] was “two-fold increase” and the “circulating level of PTH” value [6] was 5,000-14,000 pg/ml. For the same compound, the bone mass ([7]; clinical studies, approximate doses of 0.4-0.8 ug/kg body weight) was “increased bone mass”, the “circulating levels of PTH 1-34” value [7, 12] was “approximately 90 pmol/l” and the “increase in circulating PTH levels” value [7, 12] was “three-fold increase”. The “adverse effects of prolonged PTH infusion” value [8] was “rapid loss in body weight, hypercalcemia and histological abnormalities in the skeleton”.
With `C[C@]12CC[C@@H]3c4ccc(O)cc4CC[C@H]3[C@@H]1CC[C@@H]2O` [estradiol, 17β estradiol, reference compound] the “% trabecular area (% Tb.Ar.) / ovx-induced bone loss” value [9] was “not significantly restored”.
Work on “3,1,1-bis (2-methylpropyl)-4,7,10-trioxo-2,5,6,8,9,12-hexaazatridecanedioate [reference compound]” yielded an IC50 [10] of 0.9 µM.
